From patent US4356119A, “Therapeutically active polypeptides or acid addition salts and a process for producing such compounds” (Nordisk Insulinlaboratorium, priority 1978, dated 1982)
Where a SMILES comes first, the peptide text is derived from it.

Tests used:
fat cells = experiment: insulin potentiating effect on glucose metabolism in isolated fat cells; format: cell-based; conditions: 50 ng/ml insulin + 0 μg/ml peptide = 100%
Text: In vitro determination of the insulin potentiating effect of the peptides on the metabolism of glucose has given the following results, the general methods being described elsewhere (3).
All other values are based on this.

Langerhan's islets = experiment: glucose stimulated insulin secretion from isolated Langerhan's islets; format: cell-based; conditions: 10 mM glucose, hydrochlorides
Method: In vitro determination of the effect of the peptides on the glucose stimulated insulin secretion was carried out on Langerhan's islets isolated by collagenase technique and preincubated 24 hours at 37° C. Secretion tests were conducted with 10 mM of glucose and three peptide concentrations.
All peptides have been tested in the form of their hydrochlorides together with 10 mM of glucose, and the values are calculated as a percentage of the effect of 10 mM of glucose alone.

[1] = pharmacological dosages; Enk et al. (6); cited from earlier work
[2] = insulin 0 ng/ml, peptide 0.01 μg/ml
[3] = insulin 0 ng/ml, peptide 0.1 μg/ml
[4] = insulin 0 ng/ml, peptide 1 μg/ml
[5] = insulin 0 ng/ml, peptide 10 μg/ml
[6] = insulin 0 ng/ml, peptide 100 μg/ml
[7] = insulin 0.6 ng/ml, peptide 0.01 μg/ml
[8] = insulin 0.6 ng/ml, peptide 0.1 μg/ml
[9] = insulin 0.6 ng/ml, peptide 1 μg/ml
[10] = insulin 0.6 ng/ml, peptide 10 μg/ml
[11] = insulin 0.6 ng/ml, peptide 100 μg/ml
[12] = insulin 50 ng/ml, peptide 0.01 μg/ml
[13] = insulin 50 ng/ml, peptide 0.1 μg/ml
[14] = insulin 50 ng/ml, peptide 1 μg/ml
[15] = insulin 50 ng/ml, peptide 10 μg/ml
[16] = insulin 50 ng/ml, peptide 100 μg/ml

COC(=O)[C@H](CCCNC(=N)N)NC(=O)[C@H](C)NC(=O)[C@H](CO)NC(=O)[C@@H](N)CC(=O)O [compound 3, asp-ser-ala-arg-OMe, 2HCl] (H-DSAR-OMe)
glucose metabolism in fat cells (fat cells; [2]): 8% | glucose metabolism in fat cells (fat cells; [3]): 8% | glucose metabolism in fat cells (fat cells; [4]): 8% | glucose metabolism in fat cells (fat cells; [5]): 8% | glucose metabolism in fat cells (fat cells; [6]): 16% | glucose metabolism in fat cells (fat cells; [7]): 90% | glucose metabolism in fat cells (fat cells; [8]): 85% | glucose metabolism in fat cells (fat cells; [9]): 80% | glucose metabolism in fat cells (fat cells; [10]): 80% | glucose metabolism in fat cells (fat cells; [11]): 100% | glucose metabolism in fat cells (fat cells; [12]): 114% | glucose metabolism in fat cells (fat cells; [13]): 112% | glucose metabolism in fat cells (fat cells; [14]): 108% | glucose metabolism in fat cells (fat cells; [15]): 108% | glucose metabolism in fat cells (fat cells; [16]): 124%

COC(=O)[C@H](CCCNC(=N)N)NC(=O)CNC(=O)CNC(=O)CNC(=O)[C@@H](N)CCC(=O)O [compound 6, glugly-gly-gly-arg-OMe, 2HCl] (H-EGGGR-OMe)
glucose metabolism in fat cells (fat cells; [6]): 10% | glucose metabolism in fat cells (fat cells; [11]): 89% | glucose metabolism in fat cells (fat cells; [16]): 121%

glu-leu-ser-arg-OMe, 2HCl [compound 1]
glucose stimulated insulin secretion, percentage of the effect of 10 mM of glucose alone (Langerhan's islets): 59% | glucose stimulated insulin secretion, percentage of the effect of 10 mM of glucose alone (Langerhan's islets; peptide 5 mmolar): 51% | glucose stimulated insulin secretion, percentage of the effect of 10 mM of glucose alone (Langerhan's islets; peptide 5 × 10^-2 mmolar): 76% | glucose metabolism in fat cells (fat cells; [2]): 22% | glucose metabolism in fat cells (fat cells; [3]): 22% | glucose metabolism in fat cells (fat cells; [4]): 22% | glucose metabolism in fat cells (fat cells; [5]): 22% | glucose metabolism in fat cells (fat cells; [6]): 22% | glucose metabolism in fat cells (fat cells; [7]): 94% | glucose metabolism in fat cells (fat cells; [8]): 90% | glucose metabolism in fat cells (fat cells; [9]): 88% | glucose metabolism in fat cells (fat cells; [10]): 91% | glucose metabolism in fat cells (fat cells; [11]): 108% | glucose metabolism in fat cells (fat cells; [12]): 118% | glucose metabolism in fat cells (fat cells; [13]): 113% | glucose metabolism in fat cells (fat cells; [14]): 112% | glucose metabolism in fat cells (fat cells; [15]): 113% | glucose metabolism in fat cells (fat cells; [16]): 126%

glu-leu-ser-arg-leu-arg-OMe, 3HCl [compound 2]
glucose stimulated insulin secretion, percentage of the effect of 10 mM of glucose alone (Langerhan's islets): 73% | glucose stimulated insulin secretion, percentage of the effect of 10 mM of glucose alone (Langerhan's islets; peptide 5 mmolar): 113% | glucose stimulated insulin secretion, percentage of the effect of 10 mM of glucose alone (Langerhan's islets; peptide 5 × 10^-2 mmolar): 66% | glucose metabolism in fat cells (fat cells; [2]): 20% | glucose metabolism in fat cells (fat cells; [3]): 20% | glucose metabolism in fat cells (fat cells; [4]): 21% | glucose metabolism in fat cells (fat cells; [5]): 20% | glucose metabolism in fat cells (fat cells; [6]): 15% | glucose metabolism in fat cells (fat cells; [7]): 83% | glucose metabolism in fat cells (fat cells; [8]): 88% | glucose metabolism in fat cells (fat cells; [9]): 86% | glucose metabolism in fat cells (fat cells; [10]): 85% | glucose metabolism in fat cells (fat cells; [11]): 55% | glucose metabolism in fat cells (fat cells; [12]): 114% | glucose metabolism in fat cells (fat cells; [13]): 112% | glucose metabolism in fat cells (fat cells; [14]): 108% | glucose metabolism in fat cells (fat cells; [15]): 112% | glucose metabolism in fat cells (fat cells; [16]): 70%

glu-leu-ser-arg-leu-arg-asp-ser-ala-arg-OMe, 4HCl [compound 4]
glucose stimulated insulin secretion, percentage of the effect of 10 mM of glucose alone (Langerhan's islets): 41% | glucose stimulated insulin secretion, percentage of the effect of 10 mM of glucose alone (Langerhan's islets; peptide 5 mmolar): 9% | glucose stimulated insulin secretion, percentage of the effect of 10 mM of glucose alone (Langerhan's islets; peptide 5 × 10^-2 mmolar): 96%

secretin
blood sugar level [1]: without affecting the blood sugar level | secretion of insulin [1]: potentiate secretion of insulin
